# Assays:
# [1] = tested on: Female KKA^y mice; assay: Anti-diabetes action and dyslipidemia improving effect in KKA^y mouse; assay type: in vivo; conditions: 2 weeks, control group = 100
# Procedure: Female KKA^y mice (12-week-old, CLEA Japan, Inc.) were bred while allowing free ingestion of both feed and water. The mice were bred for acclimation with powder CE-2 (CLEA Japan, Inc.) from 2 weeks before administration of the compound. The body weight and plasma markers were measured and, at 14 weeks of age, they were divided such that the measured values were uniform with those of the control group. The compound of Reference Example 1, 2, 7, 8, 9 or 22 was administered for 2 weeks in a mixed feed (0.01-0.0001%). On the last day, plasma levels of glucose, insulin, total cholesterol and neutral lipid were measured.
# [2] = tested on: C2C12 cell; assay: Sugar metabolism promoting activity in muscle cell (lactic acid production); assay type: cell-based, Mouse; conditions: Mus musculus, 48 h; compound 1 μM, 2 days, C2C12 myotubes; without drug = 100%; read-out: lactic acid production promoting action (%)
# Procedure: • (1) In the same manner as in Example 1, C2C12 cell was cultured in a growth medium. After reaching subconfluence of not less than 90%, the medium was exchanged with a differentiation medium and the cells were cultured for about 7 days while exchanging the medium every 2 or 3 days until the cells differentiated to form a myotube. • (2) After confirmation of myotube formation under a microscope, the test compound (1 μM) was added to a differentiation medium and cultured for 2 days. The cells were washed with Krebs-Ringer HEPES phosphate buffer (10 mM HEPES, pH 7.4, 131 mM NaCl, 4.7 mM KCl, 2.5 mM CaCl2—2H2O, 1.2 mM MgSO4—7H2O, 1.2 mM KH2PO4), the medium was exchanged with Krebs-Ringer HEPES phosphate buffer added with 5 mM glucose, 0.2% fatty acid-free bovine serum albumin, and cultured at 37° C. for 4 hr. • (3) The lactic acid concentration of the culture supernatant was measured using Detarminer LA kit (Kyowa Medex Co., Ltd.).
# The numerical values in Table 2 show the concentration of the compound addition group with the concentration of lactic acid without addition of a drug as 100%.
# [3] = tested on: Mouse-derived myoblast line C2C12 cell; assay: Cell differentiation promoting activity in myoblast (creatine kinase activity); assay type: cell-based; conditions: Mus musculus, C2C12, 48 h, 2 days, without compound = 100%, read-out: creatine kinase activating action (%); for activity at 0.01 µM: compound at 0.01 μM (**); for activity at 1 µM: compound at 1 μM
# Procedure: • (1) Mouse-derived myoblast line C2C12 cell (Dainippon Pharmaceutical Co., Ltd.) was subcultured in a high glucose Eagle's modified Dulbecco's medium (GIBCO) added with 10% calf fetal bovine serum (GIBCO), 100 unit/mL penicillin and 100 μg/mL streptomycin (hereinafter to be referred to as a growth medium), plated at 5000 cells/cm^2 and cultured at 37° C., under 5% CO2. • (2) When the cells reached subconfluence of not less than 90%, the medium was exchanged with high glucose Eagle's modified Dulbecco's medium (GIBCO) added with (i) 2% horse serum (GIBCO) and (ii) penicillin, streptomycin and a test compound (hereinafter to be referred to as a differentiation medium) and the cells were cultured for 2 days. To the control group was added DMSO solution instead of the test compound. • (3) The cells were washed with PBS, 0.5% NP-40 solution was added, and the cells were lysed by freeze-thawing. The cell extract was centrifuged and the creatine kinase activity in the supernatant was measured as an index of muscle differentiation. The creatine kinase activity was measured using CPKII Test Wako (Wako Pure Chemical Industries, Ltd.) according to the manual of the kit.
# The numerical values in Table 1 show creatine kinase activity of the compound addition group when the creatine kinase activity without addition of the compound is 100%, and * means measurement with addition of the compound at 10 μM, ** at 0.01 μM, and others at 1 μM.
structure (smiles),measurement,setting,value
"CC(=O)Nc1ccc(Oc2sc(C(N)=O)c3c2-c2c(cnn2C)CC3)cc1 [Ref. Ex. 22, 8-[4-(acetylamino)phenoxy]-1-methyl-4,5-dihydro-1H-thieno[3,4-g]indazole-6-carboxamide]",plasma glucose (%),[1]; mixed feed dose 0.0003 %,60.9 ± 27.1%
same,plasma neutral lipid (%),[1]; mixed feed dose 0.0003 %,42.3 ± 7.2%
same,plasma total cholesterol (%),[1]; mixed feed dose 0.0003 %,71.0 ± 7.3%
same,activity at 1 µM,[2],311%
same,activity at 0.01 µM,[3],195%
"Cn1ncc2c1-c1c(Oc3ccc4c(c3)OCO4)sc(C(N)=O)c1CC2 [Ref. Ex. 9, 8-(1,3-benzodioxol-5-yloxy)-1-methyl-4,5-dihydro-1H-thieno[3,4-g]indazole-6-carboxamide]",plasma glucose (%),[1]; mixed feed dose 0.001 %,42.9 ± 3.7%
same,plasma insulin (%),[1]; mixed feed dose 0.001 %,13.7 ± 21.1%
same,plasma neutral lipid (%),[1]; mixed feed dose 0.001 %,51.0 ± 11.9%
same,plasma total cholesterol (%),[1]; mixed feed dose 0.001 %,74.5 ± 14.4%
same,activity at 1 µM,[2],196%
same,activity at 0.01 µM,[3],171%
"Cc1cccc(Oc2sc(C(N)=O)c3c2-c2c(cnn2C)CC3)n1 [Ref. Ex. 38, 1-methyl-8-[(6-methylpyridin-2-yl)oxy]-4,5-dihydro-1H-thieno[3,4-g]indazole-6-carboxamide]",activity at 1 µM,[2],157%
same,activity at 1 µM,[3],152%
"Cn1ncc2c1-c1c(OCc3ccncc3)sc(C(N)=O)c1CC2 [Ref. Ex. 5, 1-methyl-8-(pyridin-4-ylmethoxy)-4,5-dihydro-1H-thieno[3,4-g]indazole-6-carboxamide]",activity at 1 µM,[2],124%
same,activity at 1 µM,[3],113%
"Cn1ncc2c1-c1c(Oc3ccc(OC(F)(F)F)cc3)sc(C(N)=O)c1CC2 [Ref. Ex. 8, 1-methyl-8-[4-(trifluoromethoxy)phenoxy]-4,5-dihydro-1H-thieno[3,4-g]indazole-6-carboxamide]",plasma glucose (%),[1]; mixed feed dose 0.0003 %,78.2 ± 22.2%
same,plasma neutral lipid (%),[1]; mixed feed dose 0.0003 %,72.2 ± 22.1%
same,plasma total cholesterol (%),[1]; mixed feed dose 0.0003 %,85.7 ± 11.5%
same,activity at 1 µM,[2],274%
same,activity at 0.01 µM,[3],190%
"Cn1ncc2c1-c1c(Oc3ncccn3)sc(C(N)=O)c1CC2 [Ref. Ex. 37, 1-methyl-8-(pyrimidin-2-yloxy)-4,5-dihydro-1H-thieno[3,4-g]indazole-6-carboxamide]",activity at 1 µM,[2],255%
same,activity at 1 µM,[3],129%
"Cn1ncc2c1-c1c(Oc3ccc(S(C)(=O)=O)cc3)sc(C(N)=O)c1CC2 [Ref. Ex. 19, 1-methyl-8-[4-(methylsulfonyl)phenoxy]-4,5-dihydro-1H-thieno[3,4-g]indazole-6-carboxamide]",activity at 1 µM,[2],209%
same,activity at 1 µM,[3],183%
"COCCOc1sc(C(N)=O)c2c1-c1c(cnn1C)CC2 [Ref. Ex. 4, 8-(2-methoxyethoxy)-1-methyl-4,5-dihydro-1H-thieno[3,4-g]indazole-6-carboxamide]",activity at 1 µM,[2],239%
same,activity at 1 µM,[3],138%
"Cn1ncc2c1-c1c(Cc3ccccc3)sc(C(N)=O)c1CC2 [Ref. Ex. 16, 8-benzyl-1-methyl-4,5-dihydro-1H-thieno[3,4-g]indazole-6-carboxamide]",activity at 1 µM,[2],194%
same,activity at 0.01 µM,[3],150%
"Cn1ncc2c1-c1c(Oc3cccnc3OCCN3CCCC3=O)sc(C(N)=O)c1CC2 [Ref. Ex. 40, 1-methyl-8-({2-[2-(2-oxopyrrolidin-1-yl)ethoxy]pyridin-3-yl}oxy)-4,5-dihydro-1H-thieno[3,4-g]indazole-6-carboxamide]",activity at 1 µM,[2],120%
same,activity at 1 µM,[3],120%
"Cn1ncc2c1-c1c(Oc3ccc(F)cc3)sc(C(N)=O)c1CC2 [Ref. Ex. 2, 8-(4-fluorophenoxy)-1-methyl-4,5-dihydro-1H-thieno[3,4-g]indazole-6-carboxamide]",plasma glucose (%),[1]; mixed feed dose 0.0003 %,49.0 ± 7.1%
same,plasma neutral lipid (%),[1]; mixed feed dose 0.0003 %,40.4 ± 6.6%
same,plasma total cholesterol (%),[1]; mixed feed dose 0.0003 %,62.4 ± 7.1%
same,activity at 1 µM,[2],159%
same,activity at 0.01 µM,[3],175%
